According to patent US20060009441A1, “Human trace amine associated receptors” (priority 2004, published 2006):
Where two headings read alike, the source gives them in different places.

Target: Human TAAR 1 (Homo sapiens, UniProt Q96RJ0)
Assay: cAMP Biotrak EIA functional assay in HEK293 cells stably expressing hTAAR1
Format: cell-based
Conditions: for Emax: HEK293, read-out: Max (maximal response as percentage of the maximal cAMP levels induced by p-TYR)
[1] = cAMP production in HEK293 cells stably expressing human TAAR 1 (chimera with rat TAAR 1 N-/C-terminus and 3rd intracellular loop, HA leader), means of at least three independent experiments

Human TAAR 1, sequence (Q96RJ0 with tags, fused parts or gaps): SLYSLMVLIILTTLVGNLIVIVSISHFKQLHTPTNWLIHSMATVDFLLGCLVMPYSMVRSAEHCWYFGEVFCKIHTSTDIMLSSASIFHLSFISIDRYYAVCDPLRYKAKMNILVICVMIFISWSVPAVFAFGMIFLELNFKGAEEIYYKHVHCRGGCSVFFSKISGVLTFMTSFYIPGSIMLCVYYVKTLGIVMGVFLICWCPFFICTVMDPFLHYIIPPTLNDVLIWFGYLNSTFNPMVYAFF
Human TAAR 1, sequence (Q923Y9 with tags, fused parts or gaps partner): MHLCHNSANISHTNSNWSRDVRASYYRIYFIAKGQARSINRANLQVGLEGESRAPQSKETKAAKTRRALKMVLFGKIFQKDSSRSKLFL

Row | SMILES | Emax [%] | EC50 [1] [nM] | Max (maximal response as percentage of the maximal cAMP levels induced by p-TYR) [%] | EC50 [nM]
1 | NCCc1ccc(O)c(O)c1 [Dopamine, dopamine] | 50 | – | – | –
2 | NCCc1c[nH]cn1 [Histamine, histamine] | – | > 50000 | – | –
3 | CNCCc1ccc(O)cc1 [N-methyl-p-tyramine] | – | 2050 | 100 | –
4 | CNCCc1ccccc1 [N-methyl-β-PEA] | – | 160 | 100 | –
5 | NC[C@H](O)c1ccc(O)c(O)c1 [Norepinephrine, norepinephrine] | – | > 50000 | – | –
6 | NCC(O)c1ccc(O)cc1 (stereo not shown) [OCT, octopamine] | 100 | 10300 | – | –
7 | NCCc1c[nH]c2ccc(O)cc12 [Serotonin, 5-HT, Serotonin] | – | > 50000 | – | –
8 | NCCc1c[nH]c2ccccc12 [TRY, tryptamine] | 100 | 46900 | – | –
9 | NCCc1ccc(O)cc1 [p-TYR, p-tyramine] | – | – | 100 | 1070
10 | NCCc1ccccc1 [β-PEA, β-phenylethylamine] | 100 | 300 | – | –
